Experimental data from US20050209157A1, “Short bioactive peptides and methods for their use” (priority 2001, published 2005).
No end group written: not given here.

system: Stapholococcus aureus ATCC 25923; experiment: Antimicrobial assay I, modified protocol (tryptic soy broth), MBC; settings: minimum bactericidal concentration, Table 4

| Substance | MBC S. aur A.25923 [µg/mL] |
| --- | --- |
| FAKKLAKKLKKLAKKLAKKWKL-NH2 [compound 70] | 40 |
| FAKLLALALKLKL-NH2 [compound 94] | >50 |
| FALAAKALKKLAKKLKKLAKKAL-NH2 [compound 23] | 30 |
| FAKKLAKLAKKLLAL-NH2 [compound 38] | 15 |
| FAKKALKALKKL-NH2 [compound 47] | >50 |
| FAKKLAKKLAKLL-NH2 [compound 75] | >55 |
| FAKKLAKLALKLAKL-NH2 [compound 44] | 30 |
| FAKFLAKFLKKAL-NH2 [compound 111] | 40 |

system: Escherichia coli ATCC 25922; experiment: as above; settings: minimum bactericidal concentration, Table 4

| Substance | MBC E. coli A.25922 [µg/mL] |
| --- | --- |
| FAKKLAKKLKKLAKKLAKKWKL-NH2 [compound 70] | 40 |
| FAKLLALALKLKL-NH2 [compound 94] | >50 |
| FALAAKALKKLAKKLKKLAKKAL-NH2 [compound 23] | 15 |
| FAKKLAKLAKKLLAL-NH2 [compound 38] | 15 |
| FAKKALKALKKL-NH2 [compound 47] | >50 |
| FAKKLAKKLAKLL-NH2 [compound 75] | 40 |
| FAKKLAKLALKLAKL-NH2 [compound 44] | 10 |
| FAKFLAKFLKKAL-NH2 [compound 111] | 30 |

system: not listed separately; experiment: in vitro; settings: human, WI38 normal lung fibroblast cells, WI-38 LD50, Table 26, valine substitution

| Substance | CC50 at 24 h [µg/mL] |
| --- | --- |
| VAKALKALLKALKAL-NH2 [compound 501] | 26 |
| FAKKLAKLAKKLLAL-NH2 [compound 38] | 100 |
| FAKFLAKFLKKAL-NH2 [compound 111] | 25 |
| VAKLLAKALKKLL-NH2 [compound 506] | 75 |

system: cancer cell lines; experiment: Anti-cancer assays, MTT, summary over the cancer cell lines; type: cell-based; settings: X = preferred

| Substance | Anti-cancer (preferred peptide) |
| --- | --- |
| VAKALKALLKALKAL-NH2 [compound 501] | X (Preferred anticancer peptides can be selected as having LD50 values of less than or equal to about 25 μg/ml) |
| FAKKLAKKLKKLAKKLAKKWKL-NH2 [compound 70] | X (Preferred anticancer peptides can be selected as having LD50 values of less than or equal to about 25 μg/ml) |
| FAKLLALALKLKL-NH2 [compound 94] | X (Preferred anticancer peptides can be selected as having LD50 values of less than or equal to about 25 μg/ml) |
| FALAAKALKKLAKKLKKLAKKAL-NH2 [compound 23] | X (Preferred anticancer peptides can be selected as having LD50 values of less than or equal to about 25 μg/ml) |
| FAKKLAKLAKKLLAL-NH2 [compound 38] | X (Preferred anticancer peptides can be selected as having LD50 values of less than or equal to about 25 μg/ml) |
| FAKKALKALKKL-NH2 [compound 47] | X (Preferred anticancer peptides can be selected as having LD50 values of less than or equal to about 25 μg/ml) |
| FAKKLAKKLAKLL-NH2 [compound 75] | X (Preferred anticancer peptides can be selected as having LD50 values of less than or equal to about 25 μg/ml) |
| FAKKLAKLALKLAKL-NH2 [compound 44] | X (Preferred anticancer peptides can be selected as having LD50 values of less than or equal to about 25 μg/ml) |
| FAKFLAKFLKKAL-NH2 [compound 111] | X (Preferred anticancer peptides can be selected as having LD50 values of less than or equal to about 25 μg/ml) |
| KWKLFKKKTKLFKKFAKKLAKKL-OH [compound 81] | X (Preferred anticancer peptides can be selected as having LD50 values of less than or equal to about 25 μg/ml) |
| VAKLLAKALKKLL-NH2 [compound 506] | X (Preferred anticancer peptides can be selected as having LD50 values of less than or equal to about 25 μg/ml) |

system: not listed separately; experiment: in vitro; type: cell-based, human; settings: human, human red blood cells, pH 7, Table 26, valine substitution; read-out: Hemolysis RBC LD50

| Substance | HC50 at 1 h [µg/mL] |
| --- | --- |
| VAKALKALLKALKAL-NH2 [compound 501] | 15 |
| FAKKLAKLAKKLLAL-NH2 [compound 38] | 350 |
| FAKFLAKFLKKAL-NH2 [compound 111] | 5 |
| VAKLLAKALKKLL-NH2 [compound 506] | 120 |

system: Candida albicans ATCC 10231; experiment: Antimicrobial assay I, modified protocol (tryptic soy broth), MFC; settings: minimum fungicidal concentration, Table 4
Description: The preparation of all media, stock solutions, and dilutions took place in a laminar flow hood to prevent contamination. Bacterial cells were freshly grown on antibiotic medium 2 agar slants (pH 7.0 at 25° C.). Bacteria were suspended and diluted in antibiotic medium 3 to about 10^4 cfu/ml and used as the inoculum. Sample solutions (100 μl/well) were added to plates according to the plate layout. Inoculum (100 μl/well) was added to achieve a final concentration of 5×10^3 cfu/ml. Negative controls received 100 μl saline and 100 μl growth medium. Positive controls received 100 μl saline and 100 μl inoculum. Bacterial plates were incubated at 37° C. for 24 hours.
However, the data for Table 4 were obtained with a modified protocol wherein the medium was tryptic soy broth, inocolum strength was approximately 10^4 CFU per ml, and values determined were minimum bactericidal concentrations (MBC) or minimum fungicidal concentrations (MFC).
MBC or MFC values are in μg/mL. E. coli is Escherichia coli ATCC accession number 25922; P. aerug is Pseudomonas aeruginosa ATCC accession number 27853, S. aur. is Stapholococcus aureus ATCC accession number 25923; Candida is Candida albicans ATCC accession number 10231.

| Substance | MFC Candida A.10231 |
| --- | --- |
| FAKKLAKKLKKLAKKLAKKWKL-NH2 [compound 70] | >50 µg/mL |
| FAKLLALALKLKL-NH2 [compound 94] | >50 µg/mL |
| FALAAKALKKLAKKLKKLAKKAL-NH2 [compound 23] | >50 µg/mL |
| FAKKALKALKKL-NH2 [compound 47] | >50 µg/mL |
| FAKKLAKKLAKLL-NH2 [compound 75] | 30 µg/mL |
| FAKKLAKLALKLAKL-NH2 [compound 44] | >50 µg/mL |
| FAKFLAKFLKKAL-NH2 [compound 111] | INACT |

system: Pseudomonas aeruginosa ATCC 27853; experiment: Antimicrobial assay I, modified protocol (tryptic soy broth), MBC; settings: minimum bactericidal concentration, Table 4

| Substance | MBC P. aerug A.27853 [µg/mL] |
| --- | --- |
| FAKKLAKKLKKLAKKLAKKWKL-NH2 [compound 70] | 30 |
| FAKLLALALKLKL-NH2 [compound 94] | >50 |
| FALAAKALKKLAKKLKKLAKKAL-NH2 [compound 23] | 25 |
| FAKKLAKLAKKLLAL-NH2 [compound 38] | 30 |
| FAKKALKALKKL-NH2 [compound 47] | >50 |
| FAKKLAKKLAKLL-NH2 [compound 75] | 30 |
| FAKKLAKLALKLAKL-NH2 [compound 44] | 55 |
